Results on 13 molecules are retold here after article PMC6151395, “COX Inhibition Profile and Molecular Docking Studies of Some 2-(Trimethoxyphenyl)-Thiazoles” (Molecules : A Journal of Synthetic Chemistry and Natural …, 2017).

The target of one experiment is T1, human recombinant COX-2 (Homo sapiens, UniProt P35354).
T1 construct: purchased Cayman Chemical 560131
T1 sequence (P35354 18-604): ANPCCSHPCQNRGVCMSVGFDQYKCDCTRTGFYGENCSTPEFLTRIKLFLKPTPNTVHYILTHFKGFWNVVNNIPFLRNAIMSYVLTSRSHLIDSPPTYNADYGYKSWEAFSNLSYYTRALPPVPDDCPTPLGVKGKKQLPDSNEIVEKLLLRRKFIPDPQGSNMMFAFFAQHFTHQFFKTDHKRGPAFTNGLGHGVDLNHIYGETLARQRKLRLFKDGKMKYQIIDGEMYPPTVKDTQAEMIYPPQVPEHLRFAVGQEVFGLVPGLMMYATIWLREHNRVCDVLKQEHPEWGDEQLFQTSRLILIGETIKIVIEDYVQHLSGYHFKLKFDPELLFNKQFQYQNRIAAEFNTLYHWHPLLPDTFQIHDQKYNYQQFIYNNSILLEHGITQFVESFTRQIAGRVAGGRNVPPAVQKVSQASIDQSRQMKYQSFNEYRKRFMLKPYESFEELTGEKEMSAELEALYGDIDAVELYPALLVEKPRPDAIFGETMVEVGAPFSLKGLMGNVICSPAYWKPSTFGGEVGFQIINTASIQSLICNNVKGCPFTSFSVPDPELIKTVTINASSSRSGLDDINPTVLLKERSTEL
Kind of experiment: biochemical. It is filed as biochemical. Particulars: for Selectivity index SI = IC50 COX-1/IC50 COX-2: ratio of ovine COX-1 to human recombinant COX-2 IC50. The protocol:
(§1) The COX-1/2 inhibitory activities of the tested compounds were evaluated using the enzyme immunoassay (EIA) method against ovine COX-1 and human recombinant COX-2. The selectivity index was calculated as the ratio IC50 COX-1/IC50 COX-2.
(§2) The kit utilizes an enzyme immunoassay (EIA) in order to quantify the prostanoid product resulted from COX catalyzed reaction. The inhibitory potential of our molecules was tested against the ovine COX-1 and human recombinant COX-2 enzymes. The COX inhibition reaction was performed by a 10 min incubation at 37 °C in the presence of reaction buffer, heme, COX-1 or COX-2 enzymes, and the tested inhibitor. The reaction was initiated by adding arachidonic acid and incubating at 37 °C for 2 min. Enzymatic catalysis was stopped by adding HCl. Stannous chloride was subsequently added to perform the reduction of COX-derived prostaglandin H2 (PGH2) produced in the reaction of COX leading to prostaglandin F2α (PGF2α). PGF2α was then quantified using the EIA kit. Prostanoid containing solutions obtained from the COX reaction were then diluted and transferred to plates that were pre-coated with monoclonal anti-rabbit IgG antibodies produced in mouse. They were incubated overnight in the presence of PG-acetylcholinesterase (AchE) conjugate and specific PG antiserum. The reaction mixture was then removed from the wells, the plates were washed to remove all unbound reagents and Ellman’s reagent (which contains the AchE substrate) was then added for plate development. […] The intensity of the color is inversely proportional to the amount of PG found in the sample. The PG quantity was determined using a PG standard curve generated on the same plate. All determinations were performed according to the manufacturer’s instructions and similar with other literature reports. The IC50 values were calculated using a sigmoidal concentration-inhibition response curve (duplicate determinations). Every compound was assayed in the COX reaction on a range of concentrations from 0.03 μM to 300 µM in two distinct determinations. Each COX reaction sample was then EIA assayed at two dilutions and each dilution was tested in duplicate. […] Using IC50 values, the selectivity index (SI) was calculated as the ratio IC50COX-1/IC50COX-2.

The target in another experiment is T2, ovine COX-1 (Ovis aries, UniProt P05979).
T2 construct: purchased Cayman Chemical 560131
T2 sequence (P05979 25-600): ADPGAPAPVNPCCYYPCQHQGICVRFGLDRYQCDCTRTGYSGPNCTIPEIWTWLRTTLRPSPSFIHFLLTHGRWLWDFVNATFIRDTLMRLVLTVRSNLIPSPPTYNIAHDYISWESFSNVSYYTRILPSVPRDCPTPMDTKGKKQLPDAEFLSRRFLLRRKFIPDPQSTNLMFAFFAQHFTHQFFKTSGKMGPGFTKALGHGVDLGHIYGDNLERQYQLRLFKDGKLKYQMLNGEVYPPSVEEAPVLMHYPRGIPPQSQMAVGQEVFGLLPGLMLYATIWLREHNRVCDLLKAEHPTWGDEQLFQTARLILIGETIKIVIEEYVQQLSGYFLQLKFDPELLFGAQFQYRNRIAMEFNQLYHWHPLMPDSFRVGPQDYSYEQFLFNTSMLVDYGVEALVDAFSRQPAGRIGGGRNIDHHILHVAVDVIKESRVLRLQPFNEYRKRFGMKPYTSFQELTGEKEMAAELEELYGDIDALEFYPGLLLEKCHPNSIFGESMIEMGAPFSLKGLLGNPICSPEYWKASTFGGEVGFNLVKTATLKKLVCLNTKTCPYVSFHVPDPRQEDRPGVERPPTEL
Kind of experiment: biochemical. It is filed as biochemical. Particulars: EIA, sigmoidal concentration-inhibition curves, concentrations 0.03 μM to 300 µM. The protocol:
as §1, §2

Details of experiment [1]: method as in earlier work. Particulars: induced acute inflammation experimental model; cited from earlier work.
Where [2] appears, read: human recombinant COX-2, EIA, sigmoidal concentration-inhibition curves, concentrations 0.03 μM to 300 µM.

Values joined by “and” are separate entries in the source; they are usually repeats but may differ in a detail not shown here. Equal values may be shown once.

Take `COc1ccc(-c2csc(-c3cc(OC)c(OC)c(OC)c3)n2)cc1` [A4]: the 50% inhibitory concentration (IC50) on human recombinant COX-2 (setting [2]) is 75 µM; at ovine COX-1, 50.4 µM. The “Selectivity index SI = IC50 COX-1/IC50 COX-2” value at human recombinant COX-2 was found to be 0.67. For the same molecule, on ovine COX-1, the “IC50 COX-1” value is “potent”.
With `COc1cc(-c2nc(-c3ccc(C#N)cc3)cs2)cc(OC)c1OC` [A5], the half-maximal inhibitory concentration (IC50) at human recombinant COX-2 (setting [2]) is 148 µM; against ovine COX-1 it was 73.3 µM. The “Selectivity index SI = IC50 COX-1/IC50 COX-2” value on human recombinant COX-2 was 0.49.
Take `COc1cc(-c2nc(-c3ccc(C(N)=O)c(O)c3)cs2)cc(OC)c1OC` [A7]: at human recombinant COX-2 (setting [2]), the IC50 worked out at 106 µM. Further, the “Selectivity index SI = IC50 COX-1/IC50 COX-2” value on human recombinant COX-2 is 0.51. In addition, at ovine COX-1, the IC50 amounted to 54.7 µM and the “IC50 COX-1” value was “potent”.
Take `COc1cc(-c2nc(-c3cccc4ccccc34)cs2)cc(OC)c1OC` [A6]: the 50% inhibitory concentration (IC50) at human recombinant COX-2 (setting [2]) came to 28.9 µM; on ovine COX-1 it was 26.9 µM. Also, the “Selectivity index SI = IC50 COX-1/IC50 COX-2” value at human recombinant COX-2 was 0.93.
`CCOC(=O)Cc1csc(-c2cc(OC)c(OC)c(OC)c2)n1` [A13]: the IC50 on human recombinant COX-2 (setting [2]) stood at 229 µM; on ovine COX-1 it was 109 µM. The “Selectivity index SI = IC50 COX-1/IC50 COX-2” value at human recombinant COX-2 was 0.47.
For `COc1cc(-c2nc(-c3sc(-c4ccccc4)nc3C)cs2)cc(OC)c1OC` [A9], the IC50 worked out at 70.9 µM on human recombinant COX-2 (setting [2]) and 83.2 µM against ovine COX-1. In addition, on human recombinant COX-2, the “Selectivity index SI = IC50 COX-1/IC50 COX-2” value worked out at 1.17.
`COc1cc(-c2nc(-c3ccccc3)cs2)cc(OC)c1OC` [A2]: the “in vivo anti-inflammatory effect” value in experiment [1] is “lacked the in vivo effect”. Besides, the concentration for half-maximal inhibition (IC50) came to 23.3 µM at human recombinant COX-2 (setting [2]) and 34.5 µM against ovine COX-1. For the same molecule, the “Selectivity index SI = IC50 COX-1/IC50 COX-2” value at human recombinant COX-2 was determined as 1.48. Besides, the “IC50 COX-1” value against ovine COX-1 is given as “potent”.
For the molecule `COc1cc(-c2nc(C)c(C(C)=O)s2)cc(OC)c1OC` [A11], the results for the half-inhibitory concentration (IC50) at human recombinant COX-2 (setting [2]) and on ovine COX-1 were 216 µM and 76 µM, respectively. The “Selectivity index SI = IC50 COX-1/IC50 COX-2” value on human recombinant COX-2 came out at 0.35.
For `COc1cc(-c2nc(CCl)cs2)cc(OC)c1OC` [A10], the IC50 on human recombinant COX-2 (setting [2]) amounted to 107 µM. For the same molecule, the “Selectivity index SI = IC50 COX-1/IC50 COX-2” value at human recombinant COX-2 was 5.69.
With `COc1cc(-c2nc(-c3ccccc3)c(C)s2)cc(OC)c1OC` [A1], on human recombinant COX-2 (setting [2]), the IC50 is above 300 µM and the “IC50 COX-2” value was “practically inactive”. Besides, the IC50 at ovine COX-1 was determined as 140 µM.
As for `COc1cc(-c2nc(-c3ccc([N+](=O)[O-])cc3)cs2)cc(OC)c1OC` [A3], in experiment [1], the “in vivo anti-inflammatory effect” value is “efficient”. Also, the IC50 on human recombinant COX-2 (setting [2]) was 25.5 µM; on ovine COX-1, 236 µM. Also, at human recombinant COX-2, the “Selectivity index SI = IC50 COX-1/IC50 COX-2” value is 9.242 and 9.24.
Consider `CCOC(=O)c1sc(-c2cc(OC)c(OC)c(OC)c2)nc1C` [A12], for which the IC50 at human recombinant COX-2 (setting [2]) turned out to be 273 µM. For the same molecule, at human recombinant COX-2, the “Selectivity index SI = IC50 COX-1/IC50 COX-2” value stood at 1.5.
On to `COc1cc(-c2nc(-c3ccc(Cl)cc3)cs2)cc(OC)c1OC` [A8], for which the “in vivo anti-inflammatory effect” value in experiment [1] is “efficient”. Moreover, the concentration for half-maximal inhibition (IC50) was 25.6 µM at human recombinant COX-2 (setting [2]) and 31.5 µM against ovine COX-1. Further, on human recombinant COX-2, the “Selectivity index SI = IC50 COX-1/IC50 COX-2” value turned out to be 1.22. Also, the “IC50 COX-1” value on ovine COX-1 is reported as “potent”.

One may read the IC50 as the concentration that inhibits the measured activity by half.
